In patent publication US10239887B2, “Positive allosteric modulators of the muscarinic acetylcholine receptor M4” (Vanderbilt University, priority 2016, dated 2019):
Counter-ions that a name gives are not always drawn. Like-named read-outs stand apart in the source and are kept apart here.

Biological target: T1, human mAChR M4 (Homo sapiens, UniProt P08173)
T1 sequence (P08173 1-479): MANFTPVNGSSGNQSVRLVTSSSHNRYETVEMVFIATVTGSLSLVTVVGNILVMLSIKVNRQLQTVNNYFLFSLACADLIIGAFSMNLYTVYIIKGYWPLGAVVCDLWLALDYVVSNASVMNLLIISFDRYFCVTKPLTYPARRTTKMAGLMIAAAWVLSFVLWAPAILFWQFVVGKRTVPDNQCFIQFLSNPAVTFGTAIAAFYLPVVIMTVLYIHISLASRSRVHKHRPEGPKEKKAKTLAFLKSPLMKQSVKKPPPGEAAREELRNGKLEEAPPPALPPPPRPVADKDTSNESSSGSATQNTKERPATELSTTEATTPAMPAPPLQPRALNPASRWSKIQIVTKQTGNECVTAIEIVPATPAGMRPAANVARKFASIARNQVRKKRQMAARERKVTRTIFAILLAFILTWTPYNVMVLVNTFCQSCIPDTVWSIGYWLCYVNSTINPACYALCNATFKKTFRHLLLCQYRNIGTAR
Experiment: mAChR M4 cell-based functional assay (calcium flux), human M4
Conditions: for EC50: calcium flux

[1] = Human M4 EC50 (nM), Table 10, PAM activity with EC20 acetylcholine
[2] = Table 10, % ACh maximum at 30 μM
[3] = Human M4, % ACh maximum at 30 μM
[4] = Human M4 EC50, CHO-K1 hM4-Gqi5 cells, increase in EC20 acetylcholine response
[5] = Table 11, % ACh maximum at 30 μM
[6] = Human M4 EC50 (nM), Table 11, PAM activity with EC20 acetylcholine

| Structure (SMILES) | EC50 [1] [nM] | Emax [2] [%] | also measured |
| --- | --- | --- | --- |
| Cc1c(Cl)cnc2sc3c(NC4CN(c5ncc(F)cn5)C4)ncnc3c12 [Compound 225, 8-chloro-N-[1-(5-fluoropyrimidin-2-yl)azetidin-3-yl]-9-methyl-pyrido [3′,2′:4,5]thieno[3,2-d] pyrimidin-4-amine] | 841 | 63 | – |
| Cc1nc2oc3c(NC4CC4c4ccc(F)c(F)c4)ncnc3c2c(C)c1Cl (centres unmarked) [Compound 51, 8-chloro-N-[2-(3,4-difluorophenyl)cyclopropyl]-7,9-dimethyl-pyrido [3′,2′:4,5]furo[3,2-d]pyrimidin-4-amine hydrochloride] | – | – | Emax [3]: 70%; EC50 [4]: 7840 nM |
| Cc1cc(C)c2c(n1)sc1c(NCc3ccc(S(C)(=O)=O)cc3)ncnc12 [Compound 204, 7,9-dimethyl-N-[(4-methylsulfonylphenyl)methyl]pyrido [3′,2′:4,5]thieno[3,2-d] pyrimidin-4-amine] | 294 | 34.5 | – |
| Cc1nnc2sc3c(NCc4ccc5c(c4)COC5(C)C)ncnc3c2c1C [Compound 372, N-[(1,1-dimethyl-3H-isobenzofuran-5-yl)methyl]-3,4-dimethyl-pyrimido[4′,5′:4,5]thieno [2,3-c]pyridazin-8-amine] | – | – | Emax [5]: 94.7% |
| Cc1nc2sc3c(N4CC5CC5C4)ncnc3c2c(C)c1Cl (centres unmarked) [Compound 257, 4-(3-azabicyclo[3.1.0]hexan-3-yl)-8-chloro-7,9-dimethyl-pyrido [3′,2′:4,5]thieno[3,2-d] pyrimidine hydrochloride] | 1010 | 64.4 | – |
| Cc1nnc2sc3c(NCC45CC(C(C)(C)O)(C4)C5)ncnc3c2c1C [Compound 138, 2-[1-[[(3,4-dimethylpyrimido [4′,5′:4,5]thieno[2,3-c]pyridazin-8-yl)amino]methyl]-3-bicyclo[1.1.1]pentanyl]propan-2-ol] | 3090 | 85 | – |
| Cc1c(Cl)cnc2sc3c(NC4CC4(C)C)ncnc3c12 (centres unmarked) [Compound 227, 8-chloro-N-(2,2-dimethylcyclopropyl)-9-methyl-pyrido[3′,2′:4,5] thieno[3,2-d] pyrimidin-4-amine] | 665 | 56.2 | – |
| Cc1nc2sc3c(NC4CCC4)ncnc3c2c(C)c1Cl [Compound 266, 8-chloro-N-cyclobutyl-7,9-dimethyl-pyrido [3′,2′:4,5]thieno[3,2-d] pyrimidin-4-amine hydrochloride] | 1660 | 55.5 | – |
| Cc1nnc2sc3c(NCc4ccc(C(C)(C)O)c(Cl)c4)ncnc3c2c1C [Compound 188, 2-[2-chloro-4-[[(3,4-dimethylpyrimido [4′,5′:4,5]thieno[2,3-c]pyridazin-8-yl)amino]methyl]phenyl]propan-2-ol] | 775 | 79.8 | – |
| Cc1nnc2sc3c(NCc4ccc(C(=O)NC5CCCC5)c(Cl)c4)ncnc3c2c1C [Compound 317, 2-chloro-N-cyclopentyl-4-[[(3,4-dimethylpyrimido [4′,5′:4,5]thieno[2,3-c]pyridazin-8-yl)amino]methyl]benzamide] | – | – | EC50 [6]: 323 nM; Emax [5]: 75.1% |
| Cc1nc2oc3c(NCc4cccc(C(C)(C)O)c4)ncnc3c2c(C)c1Cl [Compound 288, 2-[3-[[(8-chloro-7,9-dimethyl-pyrido[3′,2′:4,5]furo[3,2-d]pyrimidin-4-yl)amino]methyl]phenyl]propan-2-ol] | 1880 | 54.4 | – |
| COCC1CN(C(=O)c2ccc(CNc3ncnc4c3sc3nnc(C)c(C)c34)cc2)C1 [Compound 127, [4-[[(3,4-dimethylpyrimido [4′,5′:4,5]thieno[2,3-c]pyridazin-8-yl)amino]methyl]phenyl]-[3-(methoxymethyl)azetidin-1-yl] methanone] | 463 | 88.4 | – |
| Cc1cc(C)c2c(n1)oc1c(NC3CCC3)ncnc12 [Compound 55, N-Cyclobutyl-7,9-dimethyl-pyrido[3′,2′:4,5]furo[3,2-d]pyrimidin-4-amine hydrochloride] | – | – | Emax: 44.2%; EC50 [4]: 1590 nM |
| COc1ccc(CNc2ncnc3c2sc2nnc(Cl)c(C)c23)cc1F [Compound 212, 3-chloro-N-[(3-fluoro-4-methoxy-phenyl)methyl]-4-methyl-pyrimido[4′,5′:4,5] thieno[2,3-c]pyridazin-8-amine] | 405 | 80 | – |
| Cc1c(Cl)cnc2sc3c(NC4(C)CC4)ncnc3c12 [Compound 226, 8-chloro-9-methyl-N-(1-methylcyclopropyl) pyrido[3′,2′:4,5]thieno [3,2-d]pyrimidin-4-amine] | 481 | 49 | – |
| Cc1nnc2sc3c(N4CC(N)C4)ncnc3c2c1C [Compound 95, 1-(3,4-dimethylpyrimido [4′,5′:4,5]thieno[2,3-c]pyridazin-8-yl) azetidin-3-amine] | 395 | 61.4 | – |

| Structure (SMILES) | EC50 [1] [nM] | Emax [2] [%] | also measured |
| --- | --- | --- | --- |
| Cc1nnc2sc3c(NCc4ccc(C(=O)NC(C)C)c(Cl)c4)ncnc3c2c1C [Compound 318, 2-chloro-4-[[(3,4-dimethylpyrimido[4′,5′:4,5]thieno[2,3-c]pyridazin-8-yl)amino]methyl]-N-isopropyl-benzamide] | – | – | EC50 [6]: 193 nM; Emax [5]: 81.7% |
| Cc1c(Cl)cnc2sc3c(N4CC(F)(F)C4)ncnc3c12 [Compound 223, 8-chloro-4-(3,3-difluoroazetidin-1-yl)-9-methyl-pyrido [3′,2′:4,5]thieno[3,2-d] pyrimidine] | 931 | 44 | – |
| Cc1nnc2sc3c(NCc4ccc(C(=O)NC(C)C(C)(C)CO)cc4)ncnc3c2c1C (centres unmarked) [Compound 158, 4-[[(3,4-dimethylpyrimido [4′,5′:4,5]thieno[2,3-c]pyridazin-8-yl)amino]methyl]-N-(3-hydroxy-1,2,2-trimethyl-propyl) benzamide] | 220 | 85 | – |
| Cc1cc(CNc2ncnc3c2sc2nnc(C)c(C)c23)ccc1C(C)(C)O [Compound 334, 2-[4-[[(3,4-dimethylpyrimido [4′,5′:4,5]thieno[2,3-c]pyridazin-8-yl)amino]methyl]-2-methyl-phenyl]propan-2-ol] | – | – | Emax [5]: 90.6% |
| Cc1nnc2oc3c(NC4CN(c5ncc(F)cn5)C4)ncnc3c2c1C [Compound 63, N-[1-(5-Fluoropyrimidin-2-yl)azetidin-3-yl]-3,4-dimethyl-pyrimido[4′,5′:4,5]furo[2,3-c]pyridazin-8-amine] | – | – | Emax [3]: 36.8% |
| COc1ccc(CNc2ncnc3c2oc2nnc(C)c(C)c23)cc1 [Compound 309, N-[(4-methoxyphenyl)methyl]-3,4-dimethyl-pyrimido [4′,5′:4,5]furo[2,3-c]pyridazin-8-amine] | 403 | 73.6 | – |
| Cc1nnc2sc3c(NCc4ccc(S(C)(=O)=O)cc4)ncnc3c2c1C [Compound 93, 3,4-dimethyl-N-[(4-methylsulfonylphenyl)methyl] pyrimido[4′,5′:4,5]thieno [2,3-c]pyridazin-8-amine] | 192 | 61.3 | – |
| Cc1nnc2oc3c(N4CC5(COC5)C4)ncnc3c2c1C [Compound 73, 3,4-dimethyl-8-(2-oxa-6-azaspiro[3.3]heptan-6-yl)pyrimido[4′,5′:4,5]furo [2,3-c]pyridazine] | – | – | Emax [3]: 46.1%; EC50 [4]: 4840 nM |
| Cc1nnc2sc3c(NCc4ccc(F)c(C(=O)NCC(C)C)c4)ncnc3c2c1C [Compound 180, 5-[[(3,4-dimethylpyrimido [4′,5′:4,5]thieno[2,3-c]pyridazin-8-yl)amino]methyl]-2-fluoro-N-isobutyl-benzamide] | 1210 | 97.6 | – |
| Cc1nnc2oc3c(NCc4cccc(C5(O)CCC5)c4)ncnc3c2c1C [Compound 300, 1-[3-[[(3,4-dimethylpyrimido [4′,5′:4,5]furo[2,3-c]pyridazin-8-yl)amino]methyl]phenyl]cyclobutanol] | – | 61.1 | – |
| Cc1c(Cl)cnc2sc3c(NCc4ccc(S(C)(=O)=O)cc4)ncnc3c12 [Compound 237, 8-chloro-9-methyl-N-[(4-methylsulfonylphenyl)methyl]pyrido [3′,2′:4,5]thieno[3,2-d] pyrimidin-4-amine dihydrochloride] | 1320 | 54.5 | – |
| Cc1nnc2sc3c(N4CC[C@@H](C(C)(C)O)C4)ncnc3c2c1C [Compound 353, 2-[(3R)-1-(3,4-dimethylpyrimido [4′,5′:4,5]thieno[2,3-c]pyridazin-8-yl)pyrrolidin-3-yl]propan-2-ol] | – | – | EC50 [6]: 321 nM; Emax [5]: 48.8% |
| Cc1nnc2oc3c(NCc4ccc(C(C)(C)O)cc4)ncnc3c2c1C [Compound 299, 2-[4-[[(3,4-dimethylpyrimido [4′,5′:4,5]furo[2,3-c]pyridazin-8-yl)amino]methyl]phenyl]propan-2-ol] | 2290 | 61.2 | – |
| Cc1nnc2oc3c(NCc4cccc(C5(O)CCC5)c4)ncnc3c2c1C [Compound 66, 1-[3-[[(3,4-dimethylpyrimido [4′,5′:4,5]furo[2,3-c]pyridazin-8-yl)amino]methyl]phenyl]cyclobutanol] | – | – | Emax [3]: 61.1% |
| COC(C)(C)c1ccc(CNc2ncnc3c2sc2nnc(C)c(C)c23)cc1 [Compound 367, N-[[4-(1-methoxy-1-methyl-ethyl)phenyl]methyl]-3,4-dimethyl-pyrimido[4′,5′:4,5] thieno[2,3-c]pyridazin-8-amine] | – | – | Emax [5]: 100% |
